Data taken from US20200109126A1 (priority 2017, published 2020).
Like-named read-outs stand apart in the source and are kept apart here.

Columns and labels:
μOR [1] = biological target: T1, μOR (Homo sapiens, UniProt P35372); test: β-arrestin recruitment at μOR with GRK2 co-expression; assay type: cell-based
humanDOR = humanDOR (Homo sapiens, UniProt P41143); test: Receptor binding with [3H]diprenorphine at human DOR
hMOR = hMOR (Homo sapiens, UniProt P35372); test: Receptor binding with [3H]diprenorphine at hMOR
μOR [2] = biological target: T1, μOR; test: cell-based; assay type: cell-based
μOR [3] = biological target: T1, μOR; test: β-arrestin recruitment at μOR without GRK2; assay type: cell-based
hKOR = hKOR (Homo sapiens, UniProt P41145); test: Receptor binding with [3H]diprenorphine at hKOR
μOR [4] = biological target: T1, μOR; test: biochemical; assay type: binding; parameters: expressed in transfected cells; host or cells: HEK293 membranes (Ki); Sf9 insect cell membranes (single-point screen); PDSP for analogs
Method: For a primary screen of selected molecules, binding to OR was assessed by measuring competition against the radioligand ^3H-diprenorphine (^3H-DPN). […] The reaction contained 40 fmol of μOR and was incubated in a buffer of 20 mM HEPES pH 7.5, 100 mM sodium chloride, and 0.1% bovine serum albumin for 1 hour at 25° C. To separate free from bound radioligand, reactions were rapidly filtered over Whatman GF/B filters with the aid of a Brandel harvester and ^3H-DPN counts were measured by liquid scintillation.

[5] = ± SD (two experiments) or SEM, (n) experiments, read-out: humanDOR [3H]dyprenorphine Ki
[6] = ± SD (two experiments) or SEM, (n) experiments, read-out: hMOR [3H]dyprenorphine Ki
[7] = read-out: Arrestin pEC50 (converted)
[8] = ± SD (two experiments) or SEM, (n) experiments, read-out: hKOR [3H]dyprenorphine Ki
[9] = molecules identified in the initial screen, read-out: μOR Ki
[10] = PZM analogs, (n) = number of independent experiments, read-out: binding affinity Ki hDOR
[11] = PZM analogs, (n) = number of independent experiments, read-out: binding affinity Ki hMOR
[12] = PZM analogs, (n) = number of independent experiments, read-out: binding affinity Ki hKOR

hKOR, sequence (P41145 whole entry): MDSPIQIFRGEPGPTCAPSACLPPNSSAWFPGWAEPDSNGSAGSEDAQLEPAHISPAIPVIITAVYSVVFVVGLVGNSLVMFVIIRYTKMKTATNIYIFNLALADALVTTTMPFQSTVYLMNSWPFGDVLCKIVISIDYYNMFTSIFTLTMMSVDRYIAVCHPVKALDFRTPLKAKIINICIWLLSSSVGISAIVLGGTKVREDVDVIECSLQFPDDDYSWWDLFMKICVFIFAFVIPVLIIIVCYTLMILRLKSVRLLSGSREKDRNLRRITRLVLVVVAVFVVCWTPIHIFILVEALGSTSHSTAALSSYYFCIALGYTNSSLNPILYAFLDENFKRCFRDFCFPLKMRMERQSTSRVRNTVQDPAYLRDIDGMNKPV
humanDOR, sequence (P41143 whole entry): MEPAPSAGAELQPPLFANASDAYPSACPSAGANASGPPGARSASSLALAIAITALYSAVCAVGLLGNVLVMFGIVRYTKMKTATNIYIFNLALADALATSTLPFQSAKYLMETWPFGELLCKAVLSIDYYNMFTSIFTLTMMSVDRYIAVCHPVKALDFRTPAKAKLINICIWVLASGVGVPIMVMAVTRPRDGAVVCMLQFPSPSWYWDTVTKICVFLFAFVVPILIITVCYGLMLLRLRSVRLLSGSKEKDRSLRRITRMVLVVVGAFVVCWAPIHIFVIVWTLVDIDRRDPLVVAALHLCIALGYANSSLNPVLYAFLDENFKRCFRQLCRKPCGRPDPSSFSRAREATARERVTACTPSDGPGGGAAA
T1 sequence (P35372 whole entry): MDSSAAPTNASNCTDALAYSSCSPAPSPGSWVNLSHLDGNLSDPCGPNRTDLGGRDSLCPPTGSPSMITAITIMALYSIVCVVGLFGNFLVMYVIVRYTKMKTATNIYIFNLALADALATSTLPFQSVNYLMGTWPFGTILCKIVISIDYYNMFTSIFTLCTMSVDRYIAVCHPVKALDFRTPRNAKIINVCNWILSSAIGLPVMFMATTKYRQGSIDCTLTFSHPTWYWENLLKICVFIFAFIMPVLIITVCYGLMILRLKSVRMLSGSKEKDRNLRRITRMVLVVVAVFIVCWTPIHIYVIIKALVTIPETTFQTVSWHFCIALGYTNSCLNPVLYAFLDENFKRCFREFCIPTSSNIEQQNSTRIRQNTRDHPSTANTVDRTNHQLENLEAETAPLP
hMOR, sequence (P35372 whole entry): as above

Structure (SMILES)	Arrestin + GRK2 Emax % DAMGO (μOR [1])	EC50 (μOR [1]; read-out: Arrestin + GRK2 EC50) [nM]	Gi/o Emax % DAMGO (μOR [2])	EC50 (μOR [2]; Gi/o EC50 nM) [nM]	Arrestin Emax % DAMGO (μOR [3])	EC50 (μOR [3]; read-out: Arrestin EC50) [nM]	also measured
CN(C)[C@H](CNC(=O)NCCc1ccsc1)Cc1ccc(O)cc1 [DD 16, (S)-1-(2-(dimethylamino)-3-(4-hydroxyphenyl)propyl)-3-(2-(thiophen-3-yl)ethyl)urea]	33 % DAMGO	144	60 % DAMGO	7.55	5 % DAMGO	–	Ki (humanDOR; [5]): 330 nM; Ki (hMOR; [6]): 43 nM; EC50 (μOR [3]; [7]): 410 nM; Ki (hKOR; [8]): 150 nM
C[C@@H](Cc1ccsc1)NC(=O)NC[C@H](Cc1ccccc1)N(C)C [(S,S)-12, 1-[(S)-2-(Dimethylamino)-3-phenylpropyl]-3-[(S)-1-(thiophen-3-yl)propan-2-yl]urea]	–	–	–	–	–	–	Gi/o activation, μOR agonist activity (in words) (μOR [2]): most potent and efficacious Gi/o signaling agonist among the four isomers
C[C@@H](NC(=O)[C@@H](N)Cc1ccc(O)cc1)C(=O)NCC(=O)N(C)[C@@H](Cc1ccccc1)C(=O)NCCO [DAMGO, reference compound]	100 % DAMGO	–	–	–	100 % DAMGO	–	–
Cc1ccc2[nH]c(=O)c(CN3CCN[C@@H](c4ccccc4)C3)cc2c1 [compound 5]	–	–	–	–	–	–	Ki (μOR [4]; [9]): 4700 nM
CN(CCc1ccccc1)C(=O)NC[C@H](Cc1ccc(O)cc1)N(C)C [DD102]	61 % DAMGO	1500	76 % DAMGO	37.9	30 % DAMGO	1980	EC50 (μOR [3]; [7]): 1980 nM
C[C@@H](Cc1csc2ccccc12)NC(=O)NC[C@H](Cc1ccc(O)cc1)N(C)C [DD63L-B]	92 % DAMGO	82.1	88 % DAMGO	5.7	38 % DAMGO	397	–
CC[C@@H](Cc1ccsc1)NC(=O)NC[C@H](Cc1ccc(O)cc1)N(C)C [DD88B, 1-((S)-2-(dimethylamino)-3-(4-hydroxyphenyl)propyl)-3-((S)-1-(thiophen-3-yl)butan-2-yl)urea]	45 % DAMGO	–	–	–	5 % DAMGO	–	–
C[C@H](NC(=O)NC[C@H](Cc1ccc(O)cc1)N(C)C)c1ccccc1 [DD 53LS, 1-((S)-2-(dimethylamino)-3-(4-hydroxyphenyl)propyl)-3-((S)-1-phenylethyl)urea]	33 % DAMGO	87.4	63 % DAMGO	3.08	5 % DAMGO	67.9	Ki (humanDOR; [5]): 180 nM; Ki (hMOR; [6]): 28 nM; Ki (hKOR; [8]): 22 nM
CN(C)[C@H](CNC(=O)NC(C)(C)Cc1ccsc1)Cc1ccc(O)cc1 [DD 32L, (S)-1-(2-(dimethylamino)-3-(4-hydroxyphenyl)propyl)-3-(2-methyl-1-(thiophen-3-yl)propan-2-yl)urea]	24 % DAMGO	49.4	52 % DAMGO	23.5	3 % DAMGO	5.23	Ki (humanDOR; [5]): 650 nM; Ki (hMOR; [6]): 38 nM; Ki (hKOR; [8]): 46 nM
CN(CC1CC1)[C@H](CNC(=O)NCCc1ccccc1)Cc1ccc(O)cc1 [DD184]	No Activity	–	40 % DAMGO	559	No Activity	–	Arrestin + GRK2 EC50 nM (μOR [1]): No Activity; Arrestin EC50 nM (μOR [3]): No Activity
C[C@@H](Cc1ccsc1)NC(=O)NC[C@H](Cc1cccc(O)c1)N(C)C [DD 47LS, 1-((S)-2-(dimethylamino)-3-(3-hydroxyphenyl)propyl)-3-((S)-1-(thiophen-3-yl)propan-2-yl)urea]	70 % DAMGO	211	73 % DAMGO	17	12 % DAMGO	357	Ki (humanDOR; [5]): 350 nM; Ki (hMOR; [6]): 34 nM; Ki (hKOR; [8]): 46 nM
C[C@H](Cc1ccsc1)NC(=O)NC[C@H](Cc1ccc(O)cc1)N(C)C [(S,R)-21, 1-[(S)-2-(Dimethylamino)-3-(4-hydroxyphenyl)propyl]-3-((R)-1-(thiophen-3-yl)propan-2-yl)urea]	–	–	–	–	–	–	Gi/o activation, μOR agonist activity (in words) (μOR [2]): more potent partial agonist of the μOR as compared to (S,S)-21
C[C@@H](Cc1ccsc1)NC(=O)NC[C@H](Cc1ccc(O)c(CO)c1)N(C)C [DD131, 1-((S)-2-(dimethylamino)-3-(4-hydroxy-3-(hydroxymethyl)phenyl)propyl)-3-((S)-1-(thiophen-3-yl)propan-2-yl)urea]	45 % DAMGO	213	57 % DAMGO	7.94	11 % DAMGO	230	–
Cc1cccc(NC2CCN(C(=O)Nc3ccc(F)cc3F)CC2)n1 [compound 3]	–	–	–	–	–	–	Ki (μOR [4]; [9]): 13800 nM
CN(C)[C@H](CNC(=O)NC1Cc2ccccc2C1)Cc1ccc(O)cc1 [DD 57L, (S)-1-(2,3-dihydro-1H-inden-2-yl)-3-(2-(dimethylamino)-3-(4-hydroxyphenyl)propyl)urea]	No Activity	–	No Activity	–	No Activity	–	Arrestin + GRK2 EC50 nM (μOR [1]): No Activity; Ki (humanDOR; [5]): 74 nM; Ki (hMOR; [6]): 8.3 nM; Gi/o EC50 nM (μOR [2]): No Activity; Arrestin EC50 nM (μOR [3]): No Activity; Ki (hKOR; [8]): 40 nM
C[C@@H](Cc1ccccc1)NC(=O)NC[C@H](Cc1ccc(O)cc1)N(C)C [DD 61L-B, 1-((S)-2-(dimethylamino)-3-(4-hydroxyphenyl)propyl)-3-((S)-1-phenylpropan-2-yl)urea]	79 % DAMGO	278	84 % DAMGO	35.5	12 % DAMGO	84.1	Ki (humanDOR; [5]): 360 nM; Ki (hMOR; [6]): 42 nM; Ki (hKOR; [8]): 37 nM

Structure (SMILES)	Arrestin + GRK2 Emax % DAMGO (μOR [1])	EC50 (μOR [1]; read-out: Arrestin + GRK2 EC50) [nM]	Gi/o Emax % DAMGO (μOR [2])	EC50 (μOR [2]; Gi/o EC50 nM) [nM]	Arrestin Emax % DAMGO (μOR [3])	EC50 (μOR [3]; read-out: Arrestin EC50) [nM]	also measured
CN(C)[C@H](CNC(=O)NC(C)(C)Cc1ccccc1)Cc1ccc(O)cc1 [DD 33L, (S)-1-(2-(dimethylamino)-3-(4-hydroxyphenyl)propyl)-3-(2-methyl-1-phenylpropan-2-yl)urea]	14 % DAMGO	134	61 % DAMGO	98.1	No Activity	–	Ki (humanDOR; [5]): 920 nM; Ki (hMOR; [6]): 46 nM; EC50 (μOR [2]; Gi/o pEC50): 98.2 nM; Arrestin EC50 nM (μOR [3]): No Activity; Ki (hKOR; [8]): 91 nM
CN(C)[C@H](CNC(=O)Cc1cn2ccccc2n1)Cc1ccccc1 [compound 2]	–	–	–	–	–	–	Ki (μOR [4]; [9]): 5800 nM
CN(C)[C@H](CNC(=O)NCCc1ccccc1)Cc1ccc(O)cc1 [DD90]	31 % DAMGO	144	76 % DAMGO	4.25	5 % DAMGO	53.5	–
CN(C[C@H](Cc1ccc(O)cc1)N(C)C)C(=O)NCCc1ccccc1 [DD108]	118 % DAMGO	1490	86 % DAMGO	35.1	120 % DAMGO	4710	EC50 (μOR [1]; read-out: Arrestin + GRK2 pEC50 (converted)): 1490 nM
CN(CCO)C(CNC(=O)NCCc1ccccc1)Cc1ccc(O)cc1 (stereo not shown)	–	–	–	–	–	–	Ki (humanDOR): 1800 nM; Ki (hMOR): 970 nM; Ki (hKOR): 1300 nM
Cc1ccc([C@H](C)NC(=O)NC[C@H](Cc2ccc(O)cc2)N(C)C)cc1 [drawing 523]	–	–	–	–	–	–	Ki (humanDOR; [10]): 700 nM; Ki (hMOR; [11]): 150 nM; Ki (hKOR; [12]): 180 nM
COc1ccc(CCNC(=O)NCC(Cc2ccc(O)cc2)N(C)C)cc1 (stereo not shown)	–	–	–	–	–	–	Ki (humanDOR; [10]): 10000 nM; Ki (hMOR; [11]): 330 nM; Ki (hKOR; [12]): 1500 nM
CN(CCc1ccccc1)C(=O)N(C)C[C@H](Cc1ccc(O)cc1)N(C)C [DD109]	No Activity	–	No Activity	–	No Activity	–	Arrestin + GRK2 EC50 nM (μOR [1]): No Activity; Gi/o EC50 nM (μOR [2]): No Activity; Arrestin EC50 nM (μOR [3]): No Activity
CN(C)[C@H](CNC(=O)Cc1ccc([N+](=O)[O-])s1)Cc1ccccc1 [compound 4]	–	–	–	–	–	–	Ki (μOR [4]): 2300 nM
CN(C)C(CNC(=O)NCCc1cccc(F)c1)Cc1ccc(O)cc1 (stereo not shown)	–	–	–	–	–	–	Ki (humanDOR; [10]): 250 nM; Ki (hMOR; [11]): 36 nM; Ki (hKOR; [12]): 170 nM
CN(C)[C@H](CNC(=S)NCCc1ccsc1)Cc1ccc(O)cc1 [drawing 501]	–	–	–	–	–	–	Ki (humanDOR; [10]): 70 nM; Ki (hMOR; [11]): 29 nM; Ki (hKOR; [12]): 86 nM
CN(C)C(CNC(=O)NCCc1ccccc1F)Cc1ccc(O)cc1 (stereo not shown)	–	–	–	–	–	–	Ki (humanDOR; [10]): 53 nM; Ki (hMOR; [11]): 43 nM; Ki (hKOR; [12]): 440 nM
CN(C)[C@H](CNC(=S)NCCc1ccsc1)Cc1ccc(O)cc1 [DD81, (S)-1-(2-(dimethylamino)-3-(4-hydroxyphenyl)propyl)-3-(2-(thiophen-3-yl)ethyl)thiourea]	27 % DAMGO	67.1	22 % DAMGO	15.1	3 % DAMGO	24.9	–
CN(C)[C@@H](CNC(=O)NC(C)(C)Cc1ccsc1)Cc1ccccc1	–	–	–	–	–	–	Ki (humanDOR; [10]): 2400 nM; Ki (hMOR; [11]): 180 nM; Ki (hKOR; [12]): 960 nM
C[C@@H](Cc1ccccc1)NC(=O)NC[C@H](Cc1ccc(O)cc1)N(C)C [drawing 517]	–	–	–	–	–	–	Ki (humanDOR; [10]): 360 nM; Ki (hMOR; [11]): 42 nM; Ki (hKOR; [12]): 37 nM
